Laboratory results: ChEMBL document CHEMBL3714716, “Modulators of the relaxin receptor 1” (2015)
Activity calls are given as the source filed them. The rule behind the calls is not given here.

Legend:
[1] = target: T1, Relaxin receptor 1 (Homo sapiens) (UniProt Q9HBX9); assay: Agonist activity at RXFP1 receptor (unknown origin) expressed in HEK293 cells assessed as stimulation of cAMP production incubated for 30 mins by TR-FRET based HTRF assay relative to forskolin; assay type: functional, cell-based
T1 sequence (whole entry): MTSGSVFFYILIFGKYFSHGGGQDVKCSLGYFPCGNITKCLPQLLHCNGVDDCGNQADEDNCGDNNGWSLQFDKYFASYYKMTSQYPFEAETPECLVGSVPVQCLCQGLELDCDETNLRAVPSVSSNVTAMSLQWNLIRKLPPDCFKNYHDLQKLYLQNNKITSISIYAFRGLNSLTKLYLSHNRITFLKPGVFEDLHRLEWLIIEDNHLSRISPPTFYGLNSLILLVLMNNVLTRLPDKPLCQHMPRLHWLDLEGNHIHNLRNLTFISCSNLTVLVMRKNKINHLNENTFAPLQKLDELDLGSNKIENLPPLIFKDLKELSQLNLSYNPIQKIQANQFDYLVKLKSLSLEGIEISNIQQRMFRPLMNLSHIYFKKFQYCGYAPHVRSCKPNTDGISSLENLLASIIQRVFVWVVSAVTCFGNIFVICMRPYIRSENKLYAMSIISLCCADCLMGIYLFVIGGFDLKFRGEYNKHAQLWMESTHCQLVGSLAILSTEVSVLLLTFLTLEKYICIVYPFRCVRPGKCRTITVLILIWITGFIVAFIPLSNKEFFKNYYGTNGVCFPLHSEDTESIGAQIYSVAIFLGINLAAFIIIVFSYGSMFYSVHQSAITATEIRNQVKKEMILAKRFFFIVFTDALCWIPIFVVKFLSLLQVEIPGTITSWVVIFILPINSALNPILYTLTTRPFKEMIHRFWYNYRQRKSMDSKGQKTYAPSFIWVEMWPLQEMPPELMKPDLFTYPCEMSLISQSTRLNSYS

Relaxin receptor 1 = target: T2, Relaxin receptor 1 (Homo sapiens, UniProt Q9HBX9); assay: Agonist activity at RXFP1 receptor (unknown origin) expressed in HEK293 cells assessed as stimulation of cAMP production incubated for 30 mins by TR-FRET based HTRF assay; assay type: functional, cell-based
T2 sequence (Q9HBX9 whole entry): T1 sequence (whole entry)

| SMILES | %max [1] | AC50 (Relaxin receptor 1; read-out: AC50) | AC50 (Relaxin receptor 1; hek293) |
| --- | --- | --- | --- |
| CCOc1ccccc1C(=O)Nc1ccccc1CNc1cccc(S(=O)(=O)C(F)(F)F)c1 | 77% | 2.65 µM |  |
| O=C(Nc1ccccc1C(=O)Nc1cccc(C(F)(F)F)c1)c1ccc(Br)cc1 | 93% | 4.2 µM |  |
| CN(C)CCCOc1ccccc1C(=O)Nc1cccc(C(F)(F)F)c1 | inactive |  | Not Active |
| COc1ccccc1-c1ccccc1C(=O)Nc1cccc(C(F)(F)F)c1 | inactive |  | Not Active |
| O=C(Nc1ccccc1C(=O)Nc1cccc(C(F)(F)F)c1)c1ccc2ccccc2c1 | 85% | 14.9 µM |  |
| CCOc1ccccc1-c1nc2c(C(=O)Nc3cccc(S(=O)(=O)C(F)(F)F)c3)cccc2[nH]1 | inactive |  | Not Active |
| O=C(Nc1cccc(C(F)(F)F)c1)c1ccccc1NC(=O)c1ccccc1C(F)(F)F | 70% | 7.47 µM |  |
| N#Cc1ccc(C(=O)Nc2ccccc2C(=O)Nc2cccc(C(F)(F)F)c2)cc1 | 96% | 1.67 µM |  |
| CCOc1ccccc1C(=O)Nc1ccncc1C(=O)Nc1cccc(S(=O)(=O)C(F)(F)F)c1 | 97% | 0.747 µM |  |
| O=C(Nc1ccccc1C(=O)Nc1cccc(C(F)(F)F)c1)c1cccc(C(F)(F)F)c1 | 95% | 2.97 µM |  |
| CNCCOc1ccccc1C(=O)Nc1ccccc1C(=O)Nc1cccc(C(F)(F)F)c1 | 92% | 3.74 µM |  |
| CC(=O)c1ccc(C(=O)Nc2ccccc2C(=O)Nc2cccc(C(F)(F)F)c2)cc1 | 71% | 5.93 µM |  |
| COCCOc1ccccc1C(=O)Nc1cccc(C(F)(F)F)c1 | inactive |  | Not Active |
| N#Cc1cccc(C(=O)Nc2ccccc2C(=O)Nc2cccc(C(F)(F)F)c2)c1 | 96% | 2.1 µM |  |
| CCOc1ccccc1C(=O)Nc1cccc2c1C(=O)N(c1cccc(S(=O)(=O)C(F)(F)F)c1)C2 | inactive |  | Not Active |
| COc1ccccc1C(=O)N(C)c1ccccc1C(=O)N(C)c1cccc(C(F)(F)F)c1 | inactive |  | Not Active |

| SMILES | %max [1] | AC50 (Relaxin receptor 1; read-out: AC50) | AC50 (Relaxin receptor 1; hek293) |
| --- | --- | --- | --- |
| CCOc1ccccc1C(=O)Nc1cnccc1C(=O)Nc1cccc(S(=O)(=O)C(F)(F)F)c1 | 99% | 2.97 µM |  |
| O=C(Nc1ccccc1C(=O)Nc1cccc(S(=O)(=O)C(F)(F)F)c1)c1ccccc1I | 85% | 4.2 µM |  |
| O=C(Nc1cccc(C(F)(F)F)c1)c1ccccc1NC(=O)c1ccccc1[N+](=O)[O-] | 30% | 188 µM |  |
| O=C(Nc1ccccc1C(=O)Nc1cccc(C(F)(F)F)c1)c1cccc(-c2ccccc2)c1 | 89% | 5.29 µM |  |
| COc1ccccc1CNc1ccccc1C(=O)Nc1cccc(C(F)(F)F)c1 | 57% | 59.3 µM |  |
| O=C(Nc1cccc(C(F)(F)F)c1)c1ccccc1NC(=O)c1ccccc1OC(F)(F)F | 96% | 1.18 µM |  |
| Cc1ccc(C(=O)Nc2ccccc2C(=O)Nc2cccc(C(F)(F)F)c2)cc1 | 85% | 4.71 µM |  |
| O=C(Nc1ccccc1C(=O)Nc1cccc(C(F)(F)F)c1)c1ccccc1I | 80% | 7.47 µM |  |
| O=C(Nc1cccc(C(F)(F)F)c1)c1ccccc1NC(=O)c1cccc2ccccc12 | 81% | 5.93 µM |  |
| COc1ccccc1C(=O)Nc1ccc(C(=O)Nc2cccc(C(F)(F)F)c2)cc1 | inactive |  | Not Active |
| COc1cccc(C(=O)Nc2ccccc2C(=O)Nc2cccc(C(F)(F)F)c2)c1 | 94% | 1.88 µM |  |
| COc1ccc(C(=O)Nc2ccccc2C(=O)Nc2cccc(C(F)(F)F)c2)cc1 | 71% | 9.4 µM |  |
| O=C(Nc1cccc(C(F)(F)F)c1)c1ccccc1OCCN1CCOCC1 | inactive |  | Not Active |
| CCOc1ccccc1C(=O)Nc1cccnc1C(=O)Nc1cccc(S(=O)(=O)C(F)(F)F)c1 | 73% | 4.71 µM |  |
| COc1ccccc1Nc1ccccc1C(=O)Nc1cccc(C(F)(F)F)c1 | 77% | 4.71 µM |  |
| O=C(Nc1ccccc1C(=O)Nc1cccc(C(F)(F)F)c1)c1ccccc1Br | 78% | 7.47 µM |  |

Further lines, results first:

| %max [1] | AC50 (Relaxin receptor 1; read-out: AC50) | AC50 (Relaxin receptor 1; hek293) | SMILES |
| --- | --- | --- | --- |
| inactive |  | Not Active | O=C(Nc1cccc(N2CCCCC2)c1)c1ccccc1NC(=O)C1CCCCC1 |
| 94% | 5.29 µM |  | CCCCC(=O)Nc1ccccc1C(=O)Nc1cccc(C(F)(F)F)c1 |
| inactive |  | Not Active | O=C(Nc1cccc(C(F)(F)F)c1)c1cccc(NC(=O)C2CCCCC2)c1 |
| 40% | 118 µM |  | O=C(NCc1cccs1)c1ccccc1NC(=O)C1CCCCC1 |
| 84% | 5.29 µM |  | CSc1cccc(NC(=O)c2ccccc2NC(=O)C2CCCCC2)c1 |
| 63% | 59.3 µM |  | COCCNc1ccccc1C(=O)Nc1cccc(C(F)(F)F)c1 |
| 98% | 4.71 µM |  | O=C(Nc1cccc(C(F)(F)F)c1)c1ccccc1NC(=O)c1ccccc1OCCN1CCOCC1 |
| 31% | 471 µM |  | O=C(Nc1cccc(-c2cccs2)c1)c1ccccc1NC(=O)C1CCCCC1 |
| 77% | 5.93 µM |  | O=C(Nc1cccc(C(F)(F)F)c1)c1ccccc1NCC1CCCCC1 |
| 74% | 2.65 µM |  | O=C(Nc1cccc(-c2ccccc2C(F)(F)F)c1)c1ccccc1NC(=O)C1CCCCC1 |
| 34% | 118 µM |  | CS(=O)(=O)c1cccc(NC(=O)c2ccccc2NC(=O)C2CCCCC2)c1 |
| 57% | 94 µM |  | O=C(Nc1ccccc1)c1ccccc1NC(=O)C1CCCCC1 |
| 91% | 2.65 µM |  | O=C(Nc1cccc(Br)c1)c1ccccc1NC(=O)C1CCCCC1 |
| 66% | 5.29 µM |  | CC(C)c1cccc(NC(=O)c2ccccc2NC(=O)C2CCCCC2)c1 |
| 64% | 74.7 µM |  | CCOc1ccccc1C(=O)Nc1ccccc1C(=O)Nc1ccncc1 |
| 46% | 9.4 µM |  | O=C(Nc1ccc2c(c1)CCC2)c1ccccc1NC(=O)C1CCCCC1 |
| 46% | 94 µM |  | O=C(Nc1ccc(C(F)(F)F)cc1)c1ccccc1NC(=O)C1CCCCC1 |
| 93% | 5.93 µM |  | O=C(Nc1cccc([N+](=O)[O-])c1)c1ccccc1NC(=O)C1CCCCC1 |
| 96% | 0.747 µM |  | CCOc1ccccc1C(=O)Nc1ccccc1C(=O)Nc1cccc(I)c1 |
| 85% | 6.66 µM |  | C#Cc1cccc(NC(=O)c2ccccc2NC(=O)C2CCCCC2)c1 |
| inactive |  | Not Active | O=C(NCc1ccc(C(F)(F)F)cc1)c1ccccc1NC(=O)C1CCCCC1 |
| inactive |  | Not Active | O=C(Nc1ccccc1F)c1ccccc1NC(=O)C1CCCCC1 |
| inactive |  | Not Active | O=C(NCc1ccco1)c1ccccc1NC(=O)C1CCCCC1 |
| inactive |  | Not Active | O=C(Nc1cccc(C(F)(F)F)c1)c1ccc(NC(=O)C2CCCCC2)cc1 |
| 87% | 1.06 µM |  | O=C(Nc1cccc(S(=O)(=O)C(F)(F)F)c1)c1ccccc1NC(=O)C1CCCCC1 |
| 92% | 3.74 µM |  | O=C(Nc1ccccc1C(=O)Nc1cccc(C(F)(F)F)c1)c1ccccc1Cl |
| 75% | 2.11 µM |  | O=C(Nc1cccc(C(F)(F)F)c1)c1ccccc1NC(=O)C1CCCCCC1 |
